# Test results as given in US20260200892A1, “CANNABINOID RECEPTOR 2 MODULATORS” (Hoffmann-La Roche Inc., priority 2023, published 2026).
# Like-named read-outs stand apart in the source and are kept apart here.
# Legend:
# [1] = molecular target: T1, human CB2 receptor (hCB2R) (Homo sapiens, UniProt P34972); assay: TR-FRET hCB2R binding assay
# T1 construct: expressed in transfected cells; membranes
# [2] = molecular target: T2, CB2 receptor (hCB2R), CHO cell line stably overexpressing CB2 receptor (Homo sapiens, UniProt P34972); assay: cAMP hCB2R functional assay (HTRF); assay type: cell-based; details: CHO cells overexpressing CB2 receptor, forskolin; for EC50: means ± SEM of 2-3 independent experiments; for Functionality: normalized to Emax of CP55940 (100%)
# T2 construct: expressed in transfected cells; host or cells: CHO cell line stably overexpressing CB2 receptor (G418 selection)
# Method: cAMP hCB2R Functional Assay
# The Homogeneous Time Resolved Fluorescence (HTRF) Assays
# The homogeneous time-resolved fluorescence (HTRF) cAMP assay was conducted according to the manufacturer's protocol for the cAMP-Gs Dynamic kit (Cisbio). Briefly, the CHO cell line stably overexpressing CB2 receptor were maintained in Ham's F12 supplemented with 10% FBS, 100 U/ml penicillin and 100 μg/ml streptomycin (Gibco-ThermoFisher) and 400 μg/ml G418 (ThermoFisher). For CB2 compounds test, harvest the cells with Cell Dissociation Buffer and re-suspend the cells in F-12 K at 0.4*10^6 cells/mL, and dispense cells into 384-well low volume plates at 2000 cells/5 μL per well. The cells were stimulated with compounds diluted in Stimulation Buffer (2.5 μL/well) for 15 min at room temperature. And then followed by the addition of 2.5 μL 25 μM forsklin. After 15 mins incubation, reactions were stopped by 5 μL/well cAMP-d2 conjugate working solution followed by 5 μL/well of anti-cAMP cryptate working solution. After incubation for 1 h at room temperature, the plates were read in a PerkinElmer Envision reader for time-resolved fluorescence resonance energy transfer detection at 620 nm and 665 nm.
# Quantification and Statistical Analysis
# All HTRF ratio data sets of test compounds were normalized to the Emax of CP55940 (100%) and obtained the means±standard error of the mean (SEM) of 2-3 independent experiments performed in technical replicates.
# [3] = TR-FRET, membranes of SNAP-tagged human CB2R HEK293-TR cells, 100 μM GppNHp, nonspecific binding with SR144528, read-out: Kd hCB2R
# T2 sequence (P34972 whole entry): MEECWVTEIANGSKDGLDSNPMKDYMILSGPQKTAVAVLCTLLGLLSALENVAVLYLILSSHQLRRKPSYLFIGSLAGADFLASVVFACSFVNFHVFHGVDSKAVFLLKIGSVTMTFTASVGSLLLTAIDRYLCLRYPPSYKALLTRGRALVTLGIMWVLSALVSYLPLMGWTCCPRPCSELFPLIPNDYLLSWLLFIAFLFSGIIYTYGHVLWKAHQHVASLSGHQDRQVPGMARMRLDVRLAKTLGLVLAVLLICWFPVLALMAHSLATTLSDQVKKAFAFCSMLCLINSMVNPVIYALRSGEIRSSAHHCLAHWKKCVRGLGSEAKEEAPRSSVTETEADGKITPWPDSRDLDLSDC
# T1 sequence (P34972 whole entry): as above
SMILES,"Kd [1, 3]",EC50 [2],Functionality [2],Kd [1]
"COc1cc(C(C)(C)[C@@H](CCCCCN=[N+]=[N-])c2ccccc2)cc(OC)c1[C@H]1C=C(CN)[C@H]2C[C@@H]1C2(C)C [Example 14, ((1S,4S,5S)-4-(4-((S)-8-azido-2-methyl-3-phenyloctan-2-yl)-2,6-dimethoxyphenyl)-6,6-dimethylbicyclo[3.1.1]hept-2-en-2-yl)methanamine]",476 nM,2690 nM,inverse agonist,–
"COc1cc(C(C)(C)[C@H](CCCCCN=[N+]=[N-])c2ccccc2)cc(OC)c1[C@H]1C=C(CN)[C@H]2C[C@@H]1C2(C)C [Example 15, ((1S,4S,5S)-4-(4-((R)-8-azido-2-methyl-3-phenyloctan-2-yl)-2,6-dimethoxyphenyl)-6,6-dimethylbicyclo[3.1.1]hept-2-en-2-yl)methanamine]",39.1 nM,112 nM,inverse agonist,–
"CCCCCC(c1ccccc1)C(C)(C)c1cc(OC)c([C@H]2C=C(CNC(=O)CCCCC[n+]3cc(S(=O)(=O)[O-])ccc3/C=C/c3cc4ccc(N(CC)CC)cc4oc3=O)[C@H]3C[C@@H]2C3(C)C)c(OC)c1 (stereo partly drawn) [Example 16, 6-((E)-2-(7-(diethylamino)-2-oxo-2H-chromen-3-yl)vinyl)-1-(6-((((1S,4S,5S)-4-(2,6-dimethoxy-4-(2-methyl-3-phenyloctan-2-yl)phenyl)-6,6-dimethylbicyclo[3.1.1]hept-2-en-2-yl)methyl)amino)-6-oxohexyl)pyridin-1-ium-3-sulfonate]",214 nM,–,–,–
"C#CCCC(=O)NCC1=C[C@H](c2c(OC)cc(C(C)(C)[C@@H](CCCCCN=[N+]=[N-])c3ccccc3)cc2OC)[C@@H]2C[C@H]1C2(C)C [Example 18, N-(((1S,4S,5S)-4-(4-((S)-8-azido-2-methyl-3-phenyloctan-2-yl)-2,6-dimethoxyphenyl)-6,6-dimethylbicyclo[3.1.1]hept-2-en-2-yl)methyl)pent-4-ynamide]",2.1 nM,40.7 nM,inverse agonist,–
"C#CCCC(=O)NCC1=C[C@H](c2c(OC)cc(C(C)(C)[C@H](CCCCCN=[N+]=[N-])c3ccccc3)cc2OC)[C@@H]2C[C@H]1C2(C)C [Example 19, N-(((1S,4S,5S)-4-(4-((R)-8-azido-2-methyl-3-phenyloctan-2-yl)-2,6-dimethoxyphenyl)-6,6-dimethylbicyclo[3.1.1]hept-2-en-2-yl)methyl)pent-4-ynamide]",0.42 nM,33.1 nM,inverse agonist,–
"CCN(CC)c1ccc2cc(/C=C/c3ccc(S(=O)(=O)[O-])c[n+]3CCCCCC(=O)NCC3=C[C@H](c4c(OC)cc(C(C)(C)C(CCCCCN=[N+]=[N-])c5ccccc5)cc4OC)[C@@H]4C[C@H]3C4(C)C)c(=O)oc2c1 (stereo partly drawn) [Example 20, 1-(6-((((1S,4S,5S)-4-(4-(8-azido-2-methyl-3-phenyloctan-2-yl)-2,6-dimethoxyphenyl)-6,6-dimethylbicyclo[3.1.1]hept-2-en-2-yl)methyl)amino)-6-oxohexyl)-6-((E)-2-(7-(diethylamino)-2-oxo-2H-chromen-3-yl)vinyl)pyridin-1-ium-3-sulfonate]",67.9 nM,–,–,–
"COc1cc(C(C)(C)[C@H](CCCCCN=[N+]=[N-])c2ccccc2)cc(OC)c1[C@H]1C=C(CNC(=O)CCCCCNC(=O)CCc2ccc3n2[B-](F)(F)[N+]2=C(c4ccc[nH]4)C=CC2=C3)[C@H]2C[C@@H]1C2(C)C [Example 28, N-(((1S,4S,5S)-4-(4-((R)-8-azido-2-methyl-3-phenyloctan-2-yl)-2,6-dimethoxyphenyl)-6,6-dimethylbicyclo[3.1.1]hept-2-en-2-yl)methyl)-6-(3-(5,5-difluoro-7-(1H-pyrrol-2-yl)-5H-514,614-dipyrrolo[1,2-c:2′,1′-f][1,3,2]diazaborinin-3-yl)propanamido)hexanamide]",–,–,–,44.7 nM
